Measured values taken from US10543212B2, “Substituted amines for treating cardiac diseases” (Cardurion Pharmaceuticals, LLC, priority 2017, dated 2020).
Like-named read-outs stand apart in the source and are kept apart here.

What was measured:
[1] = tested on: phosphorylation of CaMKII-specific site of phospholamban (Thr17, PLN) in the heart; test: In vivo cardiac CaMKII inhibition (P-PLN Thr17 in rat left ventricle, Western blotting); details: po, male SD rat left ventricle, vs vehicle-treated group, read-out: Reduction rate of P-PLN; for inhibition in vivo at 30 mg/kg: 30 mg/kg p.o.
Procedure: To evaluate potency of test compounds to inhibit cardiac CaMKII kinase in vivo, phosphorylation levels of CaMKII-specific sites of phospholamban (Thr17, PLN) were measured in the heart of rats administered with test compounds at various doses.
Test compounds were suspended in 0.5% [w/v] methylcellulose/water solution and administered (10 or 30 mg/kg) to male CD (SD) IGS rat (6-8 weeks old, n=4) by the p.o. route (5 mL/kg). At 2-4 hours after the administration, rats were sacrificed and the hearts were harvested. After washing the isolated hearts with ice-cold saline, connective tissues were removed on ice, and the isolated left ventricle were frozen into liquid nitrogen gas and stored at −80° C.
The left ventricle samples were homogenized in RIPA-buffer containing phosphatase inhibitors and protease inhibitors. Samples were analyzed by Western blotting using anti-P-PLN (Thr17, Santa Cruz Biotechnology, sc-17024-R) antibody. The band intensities were quantified using an imaging system and were normalized relative to the vehicle-treated group.

[2] = target: T1, Full-length, GST-tagged, human CaMKIIδ (Homo sapiens, UniProt Q13557); test: CaMKIIδ binding assay (TR-FRET with BODIPY-labeled probe ligand)
T1 construct: Full-Length, Glutathione-S-Transferase(GST)-Tagged, Human CaMKIIδ was purchased from Carna Biosciences; purchased Carna Biosciences 02-111
Outline: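 Compounds were tested as 4-fold, eight-point series for 1 hr at room temperature, and IC50 was obtained by logistic fitting against a 3 μM parent-compound control. Signal came from displacement of a 300 nM BODIPY ligand from 0.5 nM GST-CaMKIIδ, detected via Tb-anti-GST in calmodulin/Ca2+ (pH 7.6).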

[3] = CaMKIIδ binding assay, activity class per Table 2
[4] = Table 2, CaMKIIδ binding assay, activity given as class A/B/C
[5] = Table 2, activity class for CaMKIIδ

T1 sequence (Q13557 1-478 isoform Q13557-12): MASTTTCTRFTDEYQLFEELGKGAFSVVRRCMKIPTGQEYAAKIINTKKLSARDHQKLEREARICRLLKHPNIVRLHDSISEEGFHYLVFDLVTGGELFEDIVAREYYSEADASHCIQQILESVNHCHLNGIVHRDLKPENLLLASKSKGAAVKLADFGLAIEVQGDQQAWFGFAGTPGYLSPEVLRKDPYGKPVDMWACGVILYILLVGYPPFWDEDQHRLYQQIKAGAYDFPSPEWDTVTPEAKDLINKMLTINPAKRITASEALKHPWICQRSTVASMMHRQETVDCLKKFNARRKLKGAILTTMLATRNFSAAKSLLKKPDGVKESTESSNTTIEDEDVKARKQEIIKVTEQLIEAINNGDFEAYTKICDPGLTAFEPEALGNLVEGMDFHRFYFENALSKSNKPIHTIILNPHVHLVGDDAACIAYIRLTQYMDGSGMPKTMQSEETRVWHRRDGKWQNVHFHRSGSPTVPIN

| Structure (SMILES) | inhibition in vivo at 30 mg/kg ([1]; 4 hr after administration) [%] | inhibition in vivo at 30 mg/kg ([1]; 2 hr after administration) [%] | IC50 [2, 4] [µM] | further results |
| --- | --- | --- | --- | --- |
| C[C@@H](Cn1cnnn1)Oc1cc(-c2cnc(Nc3cn(C4CC5(C4)CN(CC(C)(C)O)C5)nc3OCC(F)(F)F)nc2)ccc1Cl [Example 946, (S)-1-(6-(4-((5-(3-((1-(1H-tetrazol-1-yl)propan-2-yl)oxy)-4-chlorophenyl)pyrimidin-2-yl)amino)-3-(2,2,2-trifluoroethoxy)-1H-pyrazol-1-yl)-2-azaspiro[3.3]heptan-2-yl)-2-methylpropan-2-ol] | > 50 | – | – | IC50 [2, 3]: < 0.01 µM |
| CC(=O)OC(C)(C)CN1CC2(CC(n3cc(Nc4ncc(-c5ccc(Cl)c(O[C@@H](C)Cn6cnnn6)c5)cn4)c(OCC(F)(F)F)n3)C2)C1 [Example 951, 1-[6-(4-{[5-(4-chloro-3-{[(2S)-1-(1H-tetrazol-1-yl)propan-2-yl]oxy}phenyl)pyrimidin-2-yl]amino}-3-(2,2,2-trifluoroethoxy)-1H-pyrazol-1-yl)-2-azaspiro[3.3]heptan-2-yl]-2-methylpropan-2-yl acetate] | > 50 | – | – | IC50 [2, 3]: < 0.01 µM |
| C[C@@H](Cn1cnnn1)Oc1cc(-c2cnc(Nc3cn([C@H]4CC[C@H](N5CCOCC5)CC4)nc3OCC(F)F)nc2)ccc1Cl [Example 806, 5-(3-(((S)-1-(1H-tetrazol-1-yl)propan-2-yl)oxy)-4-chlorophenyl)-N-(3-(2,2-difluoroethoxy)-1-(trans-4-morpholinocyclohexyl)-1H-pyrazol-4-yl)pyrimidin-2-amine] | – | > 50 | < 0.01 | – |
| CC(C)c1nn([C@H]2CC[C@H](N3CCOCC3)CC2)cc1Nc1ncc(-c2ccc(Cl)c(O[C@@H](C)Cn3cnnn3)c2)cn1 [Example 843, 5-(3-(((S)-1-(1H-tetrazol-1-yl)propan-2-yl)oxy)-4-chlorophenyl)-N-(3-isopropyl-1-(trans-4-morpholinocyclohexyl)-1H-pyrazol-4-yl)pyrimidin-2-amine] | – | – | < 0.01 | inhibition in vivo at 10 mg/kg ([1]; 10 mg/kg p.o., 4 hr after administration): > 50% |
| C[C@@H](Cn1cnnn1)Oc1cc(-c2cnc(Nc3cn(C4CC5(C4)CN(C4CCOCC4)C5)nc3OCC(F)(F)F)nc2)ccc1Cl [Example 795, (S)-5-(3-((1-(1H-tetrazol-1-yl)propan-2-yl)oxy)-4-chlorophenyl)-N-(1-(2-(tetrahydro-2H-pyran-4-yl)-2-azaspiro[3.3]heptan-6-yl)-3-(2,2,2-trifluoroethoxy)-1H-pyrazol-4-yl)pyrimidin-2-amine] | – | > 50 | < 0.01 | – |
| C[C@@H](Cn1cnnn1)Oc1cc(-c2cnc(Nc3cn(C4CC5(C4)CN(C4CCOCC4)C5)nc3C(F)(F)F)nc2)ccc1Cl [Example 831, (S)-5-(3-((1-(1H-tetrazol-1-yl)propan-2-yl)oxy)-4-chlorophenyl)-N-(1-(2-(tetrahydro-2H-pyran-4-yl)-2-azaspiro[3.3]heptan-6-yl)-3-(trifluoromethyl)-1H-pyrazol-4-yl)pyrimidin-2-amine] | > 50 | – | < 0.01 | – |
| C[C@@H](Cn1cnnn1)Oc1cc(-c2cnc(Nc3cn(C4CCN(C5CCOCC5)CC4)nc3C(F)(F)F)nc2)ccc1Cl [Example 484, (S)-5-(3-((1-(1H-tetrazol-1-yl)propan-2-yl)oxy)-4-chlorophenyl)-N-(1-(1-(tetrahydro-2H-pyran-4-yl)piperidin-4-yl)-3-(trifluoromethyl)-1H-pyrazol-4-yl)pyrimidin-2-amine] | – | > 50 | – | IC50 ([2]; CaMKIIδ binding assay, results of Table 2): < 0.01 µM |
| C[C@@H](Cn1cnnn1)Oc1cc(-c2cnc(Nc3cn([C@H]4CC[C@H](N5CCOCC5)CC4)nc3OCC(F)(F)F)nc2)ccc1Cl [Example 772, 5-(3-(((S)-1-(1H-tetrazol-1-yl)propan-2-yl)oxy)-4-chlorophenyl)-N-(1-(trans-4-morpholinocyclohexyl)-3-(2,2,2-trifluoroethoxy)-1H-pyrazol-4-yl)pyrimidin-2-amine] | – | > 50 | < 0.01 | – |
| C[C@@H](Cn1cnnn1)Oc1cc(-c2cnc(Nc3cn(C4CCN(C5CCOCC5)CC4)nc3OCC(F)(F)F)nc2)ccc1Cl [Example 677, (S)-5-(3-((1-(1H-tetrazol-1-yl)propan-2-yl)oxy)-4-chlorophenyl)-N-(1-(1-(tetrahydro-2H-pyran-4-yl)piperidin-4-yl)-3-(2,2,2-trifluoroethoxy)-1H-pyrazol-4-yl)pyrimidin-2-amine] | – | > 50 | – | IC50 [2, 5]: < 0.01 µM |
| C[C@@H](Cn1cnnn1)Oc1cc(-c2cnc(Nc3cn([C@H]4CC[C@H](N5CCOCC5)CC4)nc3C(F)(F)F)nc2)ccc1Cl [Example 695, 5-(3-(((S)-1-(1H-tetrazol-1-yl)propan-2-yl)oxy)-4-chlorophenyl)-N-(1-(trans-4-morpholinocyclohexyl)-3-(trifluoromethyl)-1H-pyrazol-4-yl)pyrimidin-2-amine] | – | > 50 | – | IC50 [2, 5]: < 0.01 µM |
